Patent US5498632A, “Esters of acyl carnitines with long-chain aliphatic alcohols and pharmaceutical compositions containing same having antibacterial activity” (Sigma-Tau Industrie Farmaceutiche Riunite S.p.A., priority 1992, dated 1996)

How the values were obtained:
[1] = Assessment of behaviour and mortality in mice (Irwin's method); parameters: species or system mouse (male Crl:(CD-1)(ICR)BR); conditions: mouse, in vivo; oral, dose 1000, 4 animals/dose
Procedure: (§1) The assessment of normal behaviour in mice was carried out following S. Irwin's method (Psychopharmacologia, 13, 222 [1968]). This method allows alterations in some behavioural, neurophysiologic and neurovegetative parameters to be detected, which are directly observable by the researcher. The study was conducted using male Crl:(CD-1)(ICR)BR mice (Charles River--Italy) weighing 22-25 g, following oral administration of the compounds suspended in carboxymethylcellulose (0.5% by weight in H2 O) to groups of 4 animals/dose.
(§2) The animals were continously kept under observation for five hours following treatment and twice a day in the subsequent five days. Mortality was also observed during the overall test period.

mice = test: as above; parameters: species or system mouse (male Crl:(CD-1)(ICR)BR); conditions: mouse, in vivo, po
Procedure: as §1, §2

Gram- bacterial strains = test: Mean MIC in broth and resistant strain number, Gram- strains; assay type: cell-based; conditions: 18 h, read-out: Mean MIC values
Procedure: (§3) MICs were determined by a standard microdilution test, using serial two-fold dilutions of the substances in Mueller-Hinton broth.
(§4) The inoculum was prepared from an overnight culture in Mueller-Hinton broth matching the 0.5 Mc Farland (turbidity) standard (BRAY W. E., Clinical Laboratory Methods, 5th Ed. C. V. MOSBY, St. Louis, Mo. 1957), and was adjusted to a final concentration of 5.0×10^4 colony-forming units/ml.
(§5) Equal volumes (0.1 ml) of both bacterial suspensions and substance solutions were distributed in microtiter plates (Falcon, 96 wells, round bottom), and then placed in a humidified incubator (37° C.) for 18 hours.
(§6) Evaluation of the Minimal Inhibitory Concentration (MIC) in broth of 16 new substances for Gram- bacterial strains.
(§7) The following strains were used: Enterobacter (1), Escherichia (3), Klebsiella (3), Proteus (3); Pseudomonas (2); Salmonella (2), Serratia (1).

[2] = test system: Helicobacter pylori NCTC 11637; test: MIC in agar (agar dilution); assay type: cell-based
Procedure: (§8) In this experiment the activity of ST 722 and ST 712 against Campylobacter and Helicobacter was investigated.
(§9) Campylobacter fetus ATCC 27374, Campylobacter coli LI 048, Campylobacter jejuni 84-ISS, and Helicobacter pylori NCTC 11637.
(§10) The culture medium was Columbia agar base supplemented with 7% (V/V) defribinated horse blood (DHB) for Campylobacter strains, and the same medium additioned with Vitox (Oxoid) for Helicobacter strain.
(§11) The Campylobacter and Helicobacter strains, preserved at -80° C. in DHB containing 10% (V/V) glycerol, were thawed and grown, in their respective culture medium, in culture flasks, which were incubated for 48 hours at 37° C. in a 10% CO2 atmosphere. After this first growth cycle, the bacteria were allowed to go through a second growth cycle in the same conditions as above.
The bacterial "patina" was then harvested by resuspension in 4-5 ml of Mueller-Hinton broth, the turbidity of which was then assessed according to Mc Farland's criteria (BRAY W. E., Clinical Laboratory Methods, 5th Ed. C. V. MOSBY, St. Louis, Mo. 1957). […]
(§12) With a Steers-type multipoint inoculator (STEERS E., FOLTZ E. L., GRAVES S., RIDEN J., 1959. Inocula-replicating apparatus for routine testing of antibacterial susceptibility to antibiotics. Antibiot. Chemoter. 9: 307-311) 1-μl volumes of the above standardized suspensions were spot-transferred into the wells of a 96-well microtiter plate, which had previously been filled with 0.2 ml/well of Mueller-Hinton agar 5% DHB, containing the test substances at different concentrations.
(§13) The plates was then incubated for 48/72 hours at 37° C. in a 10% CO2 atmosphere.

[3] = test system: Campylobacter coli LI 048; test: MIC in agar (agar dilution); assay type: cell-based
Procedure: as §8, §9, §10, §11
(§14) The bacterial "patina" was then harvested by resuspension in 4-5 ml of Mueller-Hinton broth, the turbidity of which was then assessed according to Mc Farland's criteria (BRAY W. E., Clinical Laboratory Methods, 5th Ed. C. V. MOSBY, St. Louis, Mo. 1957).
(§15) The Helicobacter suspension was adjusted to an approximate concentration of 1.0×10^9 and 1.0×10^8 organisms/ml, while the Campylobacter suspension was adjusted to 1.0×10^7 and 1.0×10^6 organisms/ml.
as §12, §13

[4] = test system: Campylobacter fetus ATCC 27374; test: MIC in agar (agar dilution); assay type: cell-based
Procedure: as §8, §9, §10, §11, §14, §15, §12, §13

[5] = test system: Campylobacter jejuni 84-ISS; test: MIC in agar (agar dilution); assay type: cell-based
Procedure: as §8, §9, §10, §11, §14, §15, §12, §13

Proteus mirabilis (32) = test: MIC in broth, Gram- strains; assay type: cell-based; conditions: 18 h, read-out: Minimal Inhibitory Concentration (MIC)
Procedure: as §3, §4, §5, §6, §7

[6] = test system: Enterobacter aerogenes (UM); test: MIC in broth, Gram- strains; assay type: cell-based; conditions: Klebsiella aerogenes, 18 h, read-out: Minimal Inhibitory Concentration (MIC)
Procedure: as §3, §4, §5, §6, §7

Klebsiella oxytoca (552) = test: MIC in broth, Gram- strains; assay type: cell-based; conditions: 18 h, read-out: Minimal Inhibitory Concentration (MIC)
Procedure: as §3, §4, §5, §6, §7

Escherichia coli (92 F) = test: MIC in broth, Gram- strains; assay type: cell-based; conditions: 18 h, E. coli (92 F), read-out: Minimal Inhibitory Concentration (MIC)
Procedure: as §3, §4, §5, §6, §7

[7] = test system: Pseudomonas aeruginosa (10 E); test: MIC in broth, Gram- strains; assay type: cell-based; conditions: 18 h, read-out: Minimal Inhibitory Concentration (MIC)
Procedure: as §3, §4, §5, §6, §7

[8] = test system: Serratia marcescens (A/1); test: MIC in broth, Gram- strains; assay type: cell-based; conditions: 18 h, read-out: Minimal Inhibitory Concentration (MIC)
Procedure: as §3, §4, §5, §6, §7

[9] = test system: Salmonella typhimurium (D.S.); test: MIC in broth, Gram- strains; assay type: cell-based; conditions: Salmonella enterica, 18 h, read-out: Minimal Inhibitory Concentration (MIC)
Procedure: as §3, §4, §5, §6, §7

Proteus vulgaris (UM) = test: MIC in broth, Gram- strains; assay type: cell-based; conditions: 18 h, read-out: Minimal Inhibitory Concentration (MIC)
Procedure: as §3, §4, §5, §6, §7

Escherichia coli (76 F) = test: MIC in broth, Gram- strains; assay type: cell-based; conditions: 18 h, E. coli (76 F), read-out: Minimal Inhibitory Concentration (MIC)
Procedure: as §3, §4, §5, §6, §7

[10] = test system: Klebsiella pneumoniae (7823); test: MIC in broth, Gram- strains; assay type: cell-based; conditions: 18 h, read-out: Minimal Inhibitory Concentration (MIC)
Procedure: as §3, §4, §5, §6, §7

[11] = test system: Pseudomonas aeruginosa (3 E); test: MIC in broth, Gram- strains; assay type: cell-based; conditions: 18 h, read-out: Minimal Inhibitory Concentration (MIC)
Procedure: as §3, §4, §5, §6, §7

[12] = test system: 4 Gram- bacterial strains and 1 Gram+ bacterial strain; test: Broth dilution test of undecyl alcohol; assay type: cell-based; conditions: emulsified in Tween 80, up to 400 mcg/ml
Procedure: (§16) To ascertain whether the antimicrobial activity was due to the undecyl alcohol (a possible product from the hydrolysis of the undecyl esters, such as e.g. ST 722 and ST 712), different "in vitro" tests were performed to overcome the difficulties stemming from the insolubility of the undecyl alcohol in the assay medium.
(§17) To circumvent this problem, three different experimental approaches were chosen obtaining the following results:
3) Undecyl alcohol emulsified in Tween 80 and tested up to the concentration of 400 mcg/ml in broth seeded with 4 Gram- bacterial strains and 1 Gram+ bacterial strain (Broth dilution test).

[13] = test system: 7 Gram- bacterial strains; test: Agar dilution test of undecyl alcohol; assay type: cell-based; conditions: emulsified in Tween 80, up to 300 mcg/ml
Procedure: as §16, §17
1) Undecyl alcohol emulsified in Tween 80 and tested up to the concentration of 300 mcg/ml in agar seeded with 7 Gram- bacterial strains (Agar dilution test).

[14] = test system: 4 Gram- bacterial strains; test: Agar diffusion test of undecyl alcohol; assay type: cell-based; conditions: absolute (0.05 ml)
Procedure: as §16, §17
2) Undecyl alcohol absolute (0.05 ml) in agar seeded with 4 Gram- bacterial strains (Agar diffusion test).

Q: Which results are given for `CCCCCCCCCCCOC(=O)CC(C[N+](C)(C)C)OC(=O)C(C)C` [ST 712, Isobutyryl-L-Carnitine Undecyl Ester Chloride]?
A: mortality at 120 h [1]: 0%; Symptoms (mice): NONE; MIC (Gram- bacterial strains): 36.4 µg/mL; MIC ([2]; Helicobacter pylori, NCTC11637, I = inoculum of 1.0 × 10^5 cells/ml, read-out: MIC in agar): 3.12 µg/mL; MIC in agar ([2]; II = inoculum of 1.0 × 10^6 cells/ml): 3.12 µg/mL; antibacterial activity for Helicobacter and Campylobacter ([2]; agar, Helicobacter and Campylobacter strains): possess an antibacterial activity; MIC ([3]; Campylobacter coli, LI048, I = inoculum of 1.0 × 10^3): 6.25 µg/mL; MIC in agar ([3]; II = inoculum of 1.0 × 10^4): 6.25 µg/mL; MIC ([4]; Campylobacter fetus, ATCC27374, I = inoculum of 1.0 × 10^3): 100 µg/mL; MIC in agar ([4]; II = inoculum of 1.0 × 10^4): 100 µg/mL; MIC ([5]; I = inoculum of 1.0 × 10^3): 25 µg/mL; MIC ([5]; II = inoculum of 1.0 × 10^4): 50 µg/mL; MIC (Proteus mirabilis (32)): > 100 µg/mL; MIC [6]: 25 µg/mL; MIC (Klebsiella oxytoca (552)): 12.5 µg/mL; MIC (Escherichia coli (92 F)): 25 µg/mL; MIC [7]: 50 µg/mL; MIC [8]: 50 µg/mL; MIC [9]: 25 µg/mL; MIC (Proteus vulgaris (UM)): 100 µg/mL; MIC (Escherichia coli (76 F)): 25 µg/mL; MIC [10]: 12.5 µg/mL; MIC [11]: 50 µg/mL

Q: For `CCCCCCCCCCCO` [Undecyl alcohol, undecyl alcohol], which antibacterial activity [12] is on record?
A: Its antibacterial activity is “no activity”.

Q: And the antibacterial activity [13]?
A: The antibacterial activity was “no activity”.

Q: What about the antibacterial activity [14] of the same compound?
A: Its antibacterial activity is “no activity”.
